Literature values in US20230270982A1, “DEVICES FOR REGIO-SPECIFIC RELEASE OF CARRIED DRUG AT ILEOCECAL REGION” (Teva Pharmaceutical Industries Ltd., priority 2020, published 2023).

Tests used:
[1] = oral ester prodrug; extensive intestinal esterase degradation
[2] = tested on: inflammatory bowel disease in mice; conditions: given topically

## CC(C)OC(=O)OCOP(=O)(CO[C@H](C)Cn1cnc2c(N)ncnc21)OCOC(=O)OC(C)C [Tenofovir disoproxil]
[1]
  bioavailability of the prodrug: about 30%

## glatiramer acetate
[2]
  treating UC: effective
